Source: article PMC12521730, “Quantitative dual-isotope preclinical SPECT/CT imaging and biodistribution of the mercury-197m/g theranostic pair with [^197m/gHg]HgCl2 and a [^197m/gHg]Hg-tetrathiol complex as a platform for radiopharmaceutical development” (EJNMMI Radiopharmacy and Chemistry, 2025)

Assay: Ex vivo biodistribution (gamma counter)
Assay type: in vivo, healthy male C57BL/6 mice
Settings: Hg-197g, 2 h post administration
Protocol: For animal injection, the tracer was prepared at high molar activity. Radiolabeling of H4Tetrathiol (10^–2 M in DMSO; 40 μL for imaging, 20 μL for bioD) (or DMSO, for [^197m/gHg]HgCl2 mice) with [^197m/gHg]HgCl2 (imaging: 26.7 MBq total m + g, 62 μL; bioD: 13.04 MBq total m + g, 31 μL) was performed in a mixture of ammonium acetate buffer (1 M; pH 7; 198 μL for imaging or 149 μL for bioD) and 6 M NaOH (72 μL or 38 μL required to achieve a pH of 7.5 after addition of activity, for imaging or BioD labeling, respectively). The reaction was allowed to stand for 1 h at 37 °C and quantitative (> 99%) non-isolated percentage radiochemical yield (%RCY) was confirmed via the iTLC methods mentioned above. Further, 100 µL of the reaction was diluted with 50 µL of PBS Tween-20 (0.01 M sodium phosphate, 0.15 M NaCl, 0.05% Tween-20) for imaging mice, or 50 µL of the reaction was diluted with 100 µL of PBS Tween-20 for BioD mice. The tracers were prepared immediately before injection to avoid radiolysis and minimize the tracer loss to any surfaces due to its lipophilicity. The injected doses of each isomer, ^197mHg and ^197gHg, were quantified by measuring an aliquot of known volume of each tracer preparation via HPGe gamma spectroscopy and decay corrected for time of injection using the Eqs. (1) and (2).
The study was conducted in compliance with the guidelines set by the Canadian Council on Animal Care (CCAC) and approved by the Animal Care Committee (ACC) at the University of British Columbia (A20-0132). A total of eight healthy male C57BL/6 mice weighing approximately 30 g for group 1 and 25 g for group 2 were used in the study. The mice were divided into two experimental groups: group 1 (n = 4) received free [^197m/gHg]HgCl2, while group 2 (n = 4) received [^197m/gHg]Hg-Tetrathiol. Within each group, one mouse was allocated for imaging, while the rest were designated for ex vivo biodistribution analysis. For SPECT imaging, the designated mice were anesthetized using isoflurane via a precision vaporizer. […] Once anesthetized, each imaging mouse received an intravenous (IV) injection via the lateral tail vein of 150 μL of [^197m/gHg]HgCl2 (0.492 MBq ^197mHg + 3.171 MBq ^197gHg) or [^197m/gHg]Hg-Tetrathiol (0.899 MBq ^197mHg + 4.230 MBq ^197gHg) in PBS Tween-20 (0.01 M Na Phosphate, 0.15 M NaCl, 0.05% Tween-20).
Mice received an IV injection of [^197m/gHg]HgCl2 (0.275 MBq ^197mHg + 1.758 MBq ^197gHg, 150 μL) or [^197m/gHg]Hg-Tetrathiol (0.384 MBq ^197mHg + 1.733 MBq ^197gHg, 150 μL) (n = 3 per group) via the lateral tail vein using a Tailveiner restrainer. After the injection, the mice were returned to their experimental cages and allowed unrestricted movement. Biodistribution studies were conducted 2 h after administration. Mice were humanely euthanized with an overdose of isoflurane followed by cardiac puncture to collect blood pool activity. The organs of interest were fully extracted, cleaned of blood without rinsing, weighed, and analysed for radioactivity using a calibrated gamma counter with the 55–93 keV energy window for ^197gHg and the 110–160 keV energy window for ^197mHg (Packard Cobra II, Perkin Elmer, Waltham, MA, USA). The stomach and intestines were carefully cleaned prior to analysis to remove residual contents. For tissues and fluids that could not be fully removed (muscle, blood and bone) activity values were extrapolated based on standardised organ weights for age- and sex-matched mice tables to ensure accurate normalization (Davies and Morris [1993]; Foster et al. [2014]). The stomach and whole intestines were cleaned before analysis. The radioactivity measurements were decay corrected for time of injection using the Eqs. (1) and (2). The results are reported as the percentage of the injected activity per gram of tissue (%IA/g) and percentage of the injected activity per tissue (%IA/organ).

In the case of `O=C(CC[S-])OCC(COC(=O)CC[S-])(COC(=O)CC[S-])COC(=O)CC[S-].[Hg+2]` [[^197m/gHg]Hg-Tetrathiol], the “Animal 1 (%IA/Organ): bladder” value is reported as 0.00 %IA/Organ, the “Animal 1 (%IA/Organ): blood” value is reported as 0.13 %IA/Organ and the “Animal 1 (%IA/Organ): bone” value is reported as 3.25 %IA/Organ. The “Animal 1 (%IA/Organ): brain” value was 0.01 %IA/Organ, the “Animal 1 (%IA/Organ): feces” value was 0.00 %IA/Organ and the “Animal 1 (%IA/Organ): heart” value was 0.07 %IA/Organ. For the same compound, the “Animal 1 (%IA/Organ): kidneys” value was 1.54 %IA/Organ, the “Animal 1 (%IA/Organ): large intestine” value was 0.02 %IA/Organ and the “Animal 1 (%IA/Organ): liver” value was 110.52 %IA/Organ. For the same compound, the “Animal 1 (%IA/Organ): lungs” value was 0.95 %IA/Organ, the “Animal 1 (%IA/Organ): muscle” value was 0.14 %IA/Organ and the “Animal 1 (%IA/Organ): pancreas” value was 0.01 %IA/Organ. For the same compound, the “Animal 1 (%IA/Organ): small intestine” value was 0.03 %IA/Organ, the “Animal 1 (%IA/Organ): spleen” value was 3.22 %IA/Organ and the “Animal 1 (%IA/Organ): stomach” value was 0.02 %IA/Organ. The “Animal 1 (%IA/Organ): tail” value was 0.69 %IA/Organ, the “Animal 1 (%IA/Organ): urine” value was 0.00 %IA/Organ and the “Animal 1 (%IA/g) g: bladder” value was 0.05 %IA/g. For the same compound, the “Animal 1 (%IA/g) g: blood” value was 0.09 %IA/g, the “Animal 1 (%IA/g) g: bone” value was 1.72 %IA/g and the “Animal 1 (%IA/g) g: brain” value was 0.03 %IA/g. For the same compound, the “Animal 1 (%IA/g) g: feces” value was 0.04 %IA/g, the “Animal 1 (%IA/g) g: heart” value was 0.55 %IA/g and the “Animal 1 (%IA/g) g: kidneys” value was 4.07 %IA/g. For the same compound, the “Animal 1 (%IA/g) g: large intestine” value was 0.12 %IA/g, the “Animal 1 (%IA/g) g: liver” value was 85.85 %IA/g and the “Animal 1 (%IA/g) g: lungs” value was 7.12 %IA/g. For the same compound, the “Animal 1 (%IA/g) g: muscle” value was 0.01 %IA/g, the “Animal 1 (%IA/g) g: pancreas” value was 0.06 %IA/g and the “Animal 1 (%IA/g) g: small intestine” value was 0.14 %IA/g. For the same compound, the “Animal 1 (%IA/g) g: spleen” value was 44.55 %IA/g, the “Animal 1 (%IA/g) g: stomach” value was 0.16 %IA/g and the “Animal 1 (%IA/g) g: tail” value was 1.37 %IA/g. For the same compound, the “Animal 1 (%IA/g) g: urine” value was 0.03 %IA/g, the “Animal 2 (%IA/Organ): bladder” value was 0.00 %IA/Organ and the “Animal 2 (%IA/Organ): blood” value was 0.17 %IA/Organ. For the same compound, the “Animal 2 (%IA/Organ): bone” value was 2.68 %IA/Organ, the “Animal 2 (%IA/Organ): brain” value was 0.01 %IA/Organ and the “Animal 2 (%IA/Organ): feces” value was 0.00 %IA/Organ. The “Animal 2 (%IA/Organ): heart” value was 0.09 %IA/Organ, the “Animal 2 (%IA/Organ): kidneys” value was 0.82 %IA/Organ and the “Animal 2 (%IA/Organ): large intestine” value was 0.01 %IA/Organ. The “Animal 2 (%IA/Organ): liver” value was 133.87 %IA/Organ, the “Animal 2 (%IA/Organ): lungs” value was 0.87 %IA/Organ and the “Animal 2 (%IA/Organ): muscle” value was 0.22 %IA/Organ. The “Animal 2 (%IA/Organ): pancreas” value was 0.01 %IA/Organ, the “Animal 2 (%IA/Organ): small intestine” value was 0.02 %IA/Organ and the “Animal 2 (%IA/Organ): spleen” value was 4.01 %IA/Organ. The “Animal 2 (%IA/Organ): stomach” value was 0.04 %IA/Organ, the “Animal 2 (%IA/Organ): tail” value was 0.56 %IA/Organ and the “Animal 2 (%IA/Organ): urine” value was 0.00 %IA/Organ. For the same compound, the “Animal 2 (%IA/g) g: bladder” value was 0.04 %IA/g, the “Animal 2 (%IA/g) g: blood” value was 0.11 %IA/g and the “Animal 2 (%IA/g) g: bone” value was 1.37 %IA/g. For the same compound, the “Animal 2 (%IA/g) g: brain” value was 0.02 %IA/g, the “Animal 2 (%IA/g) g: feces” value was 0.05 %IA/g and the “Animal 2 (%IA/g) g: heart” value was 0.74 %IA/g. For the same compound, the “Animal 2 (%IA/g) g: kidneys” value was 2.02 %IA/g, the “Animal 2 (%IA/g) g: large intestine” value was 0.05 %IA/g and the “Animal 2 (%IA/g) g: liver” value was 103.98 %IA/g. The “Animal 2 (%IA/g) g: lungs” value was 6.17 %IA/g, the “Animal 2 (%IA/g) g: muscle” value was 0.02 %IA/g and the “Animal 2 (%IA/g) g: pancreas” value was 0.04 %IA/g. For the same compound, the “Animal 2 (%IA/g) g: small intestine” value was 0.07 %IA/g, the “Animal 2 (%IA/g) g: spleen” value was 61.57 %IA/g and the “Animal 2 (%IA/g) g: stomach” value was 0.32 %IA/g. For the same compound, the “Animal 2 (%IA/g) g: tail” value was 1.15 %IA/g, the “Animal 2 (%IA/g) g: urine” value was 0.03 %IA/g and the “Animal 3 (%IA/Organ): bladder” value was 0.00 %IA/Organ. The “Animal 3 (%IA/Organ): blood” value was 0.18 %IA/Organ, the “Animal 3 (%IA/Organ): bone” value was 2.26 %IA/Organ and the “Animal 3 (%IA/Organ): brain” value was 0.01 %IA/Organ. The “Animal 3 (%IA/Organ): feces” value was 0.00 %IA/Organ, the “Animal 3 (%IA/Organ): heart” value was 0.09 %IA/Organ and the “Animal 3 (%IA/Organ): kidneys” value was 1.16 %IA/Organ. For the same compound, the “Animal 3 (%IA/Organ): large intestine” value was 0.02 %IA/Organ, the “Animal 3 (%IA/Organ): liver” value was 131.25 %IA/Organ and the “Animal 3 (%IA/Organ): lungs” value was 1.12 %IA/Organ. The “Animal 3 (%IA/Organ): muscle” value was 0.21 %IA/Organ, the “Animal 3 (%IA/Organ): pancreas” value was 0.01 %IA/Organ and the “Animal 3 (%IA/Organ): small intestine” value was 0.02 %IA/Organ. The “Animal 3 (%IA/Organ): spleen” value was 4.84 %IA/Organ, the “Animal 3 (%IA/Organ): stomach” value was 0.09 %IA/Organ and the “Animal 3 (%IA/Organ): tail” value was 0.27 %IA/Organ. For the same compound, the “Animal 3 (%IA/Organ): urine” value was 0.00 %IA/Organ, the “Animal 3 (%IA/g) g: bladder” value was 0.03 %IA/g and the “Animal 3 (%IA/g) g: blood” value was 0.13 %IA/g. For the same compound, the “Animal 3 (%IA/g) g: bone” value was 1.20 %IA/g, the “Animal 3 (%IA/g) g: brain” value was 0.03 %IA/g and the “Animal 3 (%IA/g) g: feces” value was 0.00 %IA/g. The “Animal 3 (%IA/g) g: heart” value was 0.82 %IA/g, the “Animal 3 (%IA/g) g: kidneys” value was 3.17 %IA/g and the “Animal 3 (%IA/g) g: large intestine” value was 0.10 %IA/g. For the same compound, the “Animal 3 (%IA/g) g: liver” value was 159.50 %IA/g, the “Animal 3 (%IA/g) g: lungs” value was 8.45 %IA/g and the “Animal 3 (%IA/g) g: muscle” value was 0.02 %IA/g. The “Animal 3 (%IA/g) g: pancreas” value was 0.08 %IA/g, the “Animal 3 (%IA/g) g: small intestine” value was 0.09 %IA/g and the “Animal 3 (%IA/g) g: spleen” value was 77.82 %IA/g. For the same compound, the “Animal 3 (%IA/g) g: stomach” value was 0.89 %IA/g, the “Animal 3 (%IA/g) g: tail” value was 0.56 %IA/g and the “Animal 3 (%IA/g) g: urine” value was 0.03 %IA/g. For the same compound, the “Animal 4 (%IA/Organ): bladder” value was 0.00 %IA/Organ, the “Animal 4 (%IA/Organ): blood” value was 0.15 %IA/Organ and the “Animal 4 (%IA/Organ): bone” value was 2.62 %IA/Organ. The “Animal 4 (%IA/Organ): brain” value was 0.01 %IA/Organ, the “Animal 4 (%IA/Organ): feces” value was 0.00 %IA/Organ and the “Animal 4 (%IA/Organ): heart” value was 0.09 %IA/Organ. For the same compound, the “Animal 4 (%IA/Organ): kidneys” value was 1.00 %IA/Organ, the “Animal 4 (%IA/Organ): large intestine” value was 0.01 %IA/Organ and the “Animal 4 (%IA/Organ): liver” value was 107.31 %IA/Organ. For the same compound, the “Animal 4 (%IA/Organ): lungs” value was 0.93 %IA/Organ, the “Animal 4 (%IA/Organ): muscle” value was 0.20 %IA/Organ and the “Animal 4 (%IA/Organ): pancreas” value was 0.01 %IA/Organ. For the same compound, the “Animal 4 (%IA/Organ): small intestine” value was 0.02 %IA/Organ, the “Animal 4 (%IA/Organ): spleen” value was 4.62 %IA/Organ and the “Animal 4 (%IA/Organ): stomach” value was 0.01 %IA/Organ. The “Animal 4 (%IA/Organ): tail” value was 2.67 %IA/Organ, the “Animal 4 (%IA/Organ): urine” value was 0.00 %IA/Organ and the “Animal 4 (%IA/g) g: bladder” value was 0.07 %IA/g. The “Animal 4 (%IA/g) g: blood” value was 0.10 %IA/g, the “Animal 4 (%IA/g) g: bone” value was 1.40 %IA/g and the “Animal 4 (%IA/g) g: brain” value was 0.02 %IA/g. The “Animal 4 (%IA/g) g: feces” value was 0.01 %IA/g.
